From US20250382322A1, “DIAGNOSTICS FOR DETECTING ECTO-5'-NUCLEOTIDASE (CD73)” (EBERHARD KARLS UNIVERSITÄT TÜBINGEN, priority 2022, published 2025) come the findings set out here.

One assay deals with T1, human P2Y1 receptor (Homo sapiens, UniProt P47900).
T1 construct: expressed in transfected cells; host or cells: 1321N1 astrocytoma cells (printed '1231N1 astrocytomna cells')
The assay is described as follows: Calcium mobilization assay at P2Y1 receptor. It counts as cell-based. Conditions: 1231N1 astrocytoma cells. As to the method:
Interaction of 2 with the ADP-activated human P2Y1 receptor, which is Gq protein-coupled, was determined by calcium mobilization assays. The receptor was stably expressed in 1231N1 astrocytomna cells^25, 26 (for results see Table 2). Compound 20 was not tested at the P2Y1 receptor since the fluorescent compound would interfere with the calcium mobilization assay.
On the technique in general: Calcium assays in cells follow changes in intracellular calcium, usually with a dye or a luminescent sensor.

In assay [1] the target is T2, native membrane-anchored human CD73 (in MDA-MB-231 cell membrane preparations) (Homo sapiens, UniProt P21589).
T2 construct: membrane preparations of MDA-MB-231 cells; endogenous in cells; host or cells: MDA-MB-231 cell membrane preparations
T2 sequence (P21589 27-549 limits assumed): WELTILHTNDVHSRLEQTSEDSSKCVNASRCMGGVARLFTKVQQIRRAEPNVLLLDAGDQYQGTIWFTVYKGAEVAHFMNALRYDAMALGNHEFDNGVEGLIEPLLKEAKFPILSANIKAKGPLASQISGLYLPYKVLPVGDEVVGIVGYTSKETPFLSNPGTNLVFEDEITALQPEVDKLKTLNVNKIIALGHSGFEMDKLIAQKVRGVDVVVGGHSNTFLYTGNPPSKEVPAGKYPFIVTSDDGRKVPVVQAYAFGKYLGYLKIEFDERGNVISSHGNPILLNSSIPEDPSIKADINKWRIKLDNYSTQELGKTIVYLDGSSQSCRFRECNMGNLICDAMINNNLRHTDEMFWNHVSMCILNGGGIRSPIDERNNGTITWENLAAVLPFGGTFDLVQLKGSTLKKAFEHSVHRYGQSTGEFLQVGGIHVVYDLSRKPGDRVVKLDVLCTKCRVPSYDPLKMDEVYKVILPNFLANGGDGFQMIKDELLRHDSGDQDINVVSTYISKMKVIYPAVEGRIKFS
Kind of assay: CD73 enzyme inhibition assay with [2,8-3H]AMP, MDA-MB-231 membrane preparations. It counts as biochemical. Conditions: [2,8-3H]AMP (5 μM) as substrate, read-out: Human CD73 MDA-MB-231 Ki ± SEM. As for the experimental part: Compound 2b, its precursor 1, and 20 were investigated for their CD73-inhibitory potency using tritium-labeled AMP as a substrate.^20 After incubation with CD73, non-hydrolyzed substrate and inorganic phosphate were precipitated using a solution of lanthanum chloride, and the precipitate was separated from the solution containing the reaction product [2,8-^3H]adenosine by filtration through GF/B glass fiber filters (WhatmanTM GE Healthcare, Chicago, IL, USA) using a cell harvester (M-48, Brandel, Gaitherburg, MD, USA). The filtrates (ca. 1.8 mL each) were transferred to scintillation vials, scintillation cocktail ULTIMA Gold XR (PerkinElmer, Waltham, MA, USA) was added (5 mL), and the radioactivity esd quantified by scintillation counting. CD73 preparations were (1) recombinant soluble human CD73,^13 (2) recombinant soluble rat CD73,^21 both expressed in Spodoptera frugiperda 9 (Sf) cells, (3) membrane preparations of MDA-MB-231 cells,^16 a human triple-negative breast cancer cell line with high expression of CD73,^18 and (4) membrane preparations of the 4T1.2 cell line, a mouse CD73-expressing breast cancer cell line.^22 The potency of the compounds was determined by measurements of full concentration-inhibition curves. K values were calcuated from the obtained IC50 values employing the Cheng-Prusoff equation.^23 […]

The term IC50 denotes the concentration at which inhibition is half-maximal. In general, EC50 refers to the midpoint of the concentration-response curve. Broadly, the Ki is a measure of affinity in units of concentration, obtained from inhibition or displacement.

T1 sequence (P47900 whole entry): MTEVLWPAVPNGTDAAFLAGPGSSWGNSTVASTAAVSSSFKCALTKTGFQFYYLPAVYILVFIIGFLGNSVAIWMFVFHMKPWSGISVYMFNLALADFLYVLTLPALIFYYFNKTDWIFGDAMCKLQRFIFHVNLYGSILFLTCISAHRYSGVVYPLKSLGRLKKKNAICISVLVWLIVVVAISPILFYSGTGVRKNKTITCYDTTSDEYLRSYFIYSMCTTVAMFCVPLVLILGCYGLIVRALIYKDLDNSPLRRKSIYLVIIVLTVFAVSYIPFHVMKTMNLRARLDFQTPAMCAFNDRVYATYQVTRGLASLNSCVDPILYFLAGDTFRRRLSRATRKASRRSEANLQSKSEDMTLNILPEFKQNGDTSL

Regarding `CCCN(Cc1ccc(-c2cn(CCF)nn2)cc1)c1nc(Cl)nc2c1ncn2[C@@H]1O[C@H](COP(=O)(O)CP(=O)(O)O)C(O)C1O` (stereo partly shown) [Compound 2], the concentration for half-maximal inhibition (IC50) on human P2Y1 receptor (2-methylthio-ADP as agonist at EC80 (3 μM), read-out: Inhibition P2Y1 receptor IC50) is over 10000 nM. The EC50 on human P2Y1 receptor (read-out: Activation P2Y1 receptor EC50) is over 10000 nM. In assay [1], the Ki turned out to be 2.78 ± 0.47 nM.
On to `O=C(NCCCCCCNC(=O)c1ccc2c(c1)C1(OC2=O)c2ccc(O)cc2Oc2cc(O)ccc21)c1ccc(CNc2nc(Cl)nc3c2ncn3[C@@H]2O[C@H](COP(=O)(O)CP(=O)(O)O)[C@@H](O)[C@H]2O)cc1` [Compound 20, (((((2R,3S,4R,5R)-5-(2-chloro-6-((4-((6-(3′,6′-dihydroxy-3-oxo-3H-spiro[isobenzofuran-1,9′-xanthene]-6-carboxamido)-hexyl)carbamoyl)benzyl)amino)-9H-purin-9-yl)-3,4-dihydroxytetrahydrofuran-2-yl)methoxy)(hydroxy)phosphoryl)methyl)phosphonic acid], for which the Ki in assay [1] was found to be 6.76 ± 1.25 nM.
